Publication PMC7198493 (Nature Communications, 2020)
Substitutions are numbered along the chain they refer to.

Experiments:
Assay type in all cases: binding
[1] = target: T1, olfactory marker protein (OMP) (Mus musculus, UniProt Q64288); test: BRET from Rluc-OMP to fluorescent 8NBD-cAMP, dose-response (EC50 taken as apparent Kd)
T1 construct: Rluc-OMP fusion, wild type
T1 sequence (Q64288 2-163): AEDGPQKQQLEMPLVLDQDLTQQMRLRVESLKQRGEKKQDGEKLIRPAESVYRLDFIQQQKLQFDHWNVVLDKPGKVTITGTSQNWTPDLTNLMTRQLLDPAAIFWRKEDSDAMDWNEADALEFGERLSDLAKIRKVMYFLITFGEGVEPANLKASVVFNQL

[2] = target: T2, olfactory marker protein (OMP) (Mus musculus, UniProt Q64288, G126E); test: BRET from mutant Rluc-OMP to 8NBD-cAMP
T2 construct: Rluc-OMP fusion, G126E mutant
T2 sequence (Q64288 2-163 G126E): T1 sequence (Q64288 2-163) with G125E

[3] = target: T1, olfactory marker protein (OMP); test: competitive BRET displacement of 8NBD-cAMP from Rluc-OMP in HEK293T lysate

Compound	Kd [1]	BRET from mutant Rluc-OMP to 8NBD-cAMP [2]	IC50 [3]
Nc1ncnc2c1nc(SCCNc1ccc([N+](=O)[O-])c3nonc13)n2[C@@H]1O[C@@H]2COP(=O)(O)O[C@H]2[C@H]1O [8NBD-cAMP]	~1.9 µM	pocket A-mutated Rluc-OMP^G126E retained the low-affinity interaction, whereas the pocket B mutants lost their interaction with 8NBD-cAMP	
Nc1nc2c(ncn2[C@@H]2O[C@@H]3COP(=O)(O)O[C@H]3[C@H]2O)c(=O)[nH]1 [cGMP]			11 µM
